Some test systems named below: KM12 colon; M14 melanoma; NCI-H460 lung; NCI-H522 lung; NCI/ADR-RES ovarian; RXF 393 renal; SF-295 CNS; SK-MEL-28 melanoma; SW-620 colon; U251 CNS.
Holding throughout (assay): NCI tumour cell line growth inhibition, 48 h

Where “and” joins values, the source holds several entries; their conditions need not be identical. Equal values may be shown once.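 Cultured in 96-well plates, cells were exposed to test compound for 48 hours across five concentrations. GI50 = concentration required for 50% inhibition of growth. At the TGI there is no net growth.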

We go through 10 compounds from PubChem BioAssay (NCI).

Regarding `NC1=CC(=O)C(=O)c2cccnc21`, the GI50 in the assay on KM12 colon is 12 µM; with M14 melanoma, 1.83 µM; with NCI-H460 lung it was 2.63 µM; in the assay with NCI-H522 lung, 7.32 µM; in the assay with NCI/ADR-RES ovarian, 3.6 µM; in the assay with RXF 393 renal it was 14.2 µM. In addition, the GI50 in the assay on SF-295 CNS was 2.48 µM; in the assay with SK-MEL-28 melanoma, 2.6 µM; with SW-620 colon it was 8.67 µM; with U251 CNS, 3.92 µM. For the same compound, the TGI in the assay with KM12 colon came out at 25.8 µM; in the assay on M14 melanoma, 6.29 µM; in the assay with NCI-H460 lung, 7.38 µM; in the assay with NCI-H522 lung, 22.6 µM; in the assay on NCI/ADR-RES ovarian, 24 µM; in the assay with RXF 393 renal, 27.2 µM. The TGI in the assay on SF-295 CNS was 10.3 µM; in the assay on SK-MEL-28 melanoma, 6.38 µM; in the assay on SW-620 colon, 24.3 µM; in the assay on U251 CNS, 15.4 µM.
Turning to `Cc1ccc(C(=O)Nc2ccc(CN3CCN(C)CC3)c(C(F)(F)F)c2)cc1C#Cc1cncc2ncccc12`, the GI50 in the assay with KM12 colon is 0.338 µM; in the assay with M14 melanoma it was 0.0877 µM; in the assay with NCI-H460 lung, 0.428 µM; in the assay on NCI-H522 lung, 0.323 µM; in the assay on NCI/ADR-RES ovarian it was 0.502 µM; in the assay with RXF 393 renal, 0.29 µM. Also, the GI50 is 1.2 µM with SF-295 CNS, 0.286 µM with SK-MEL-28 melanoma, 0.443 µM in the assay with SW-620 colon and 0.52 µM in the assay with U251 CNS. Besides, the TGI was 4.49 µM in the assay on KM12 colon; 0.9 µM in the assay on M14 melanoma; 5.02 µM in the assay on NCI-H460 lung; 15.6 µM in the assay with NCI-H522 lung; 16 µM in the assay with NCI/ADR-RES ovarian; 1.05 µM in the assay on RXF 393 renal. The TGI with SF-295 CNS was 16.2 µM; with SK-MEL-28 melanoma, 1.55 µM; with SW-620 colon, 1.76 µM; with U251 CNS it was 1.84 µM.
With `O=C1C[C@@H](c2ccccc2)NCCCCN(O)CCCN1`, the TGI with KM12 colon, in the assay with M14 melanoma, in the assay with NCI-H522 lung, in the assay on NCI/ADR-RES ovarian, with RXF 393 renal and in the assay with SF-295 CNS was greater than 100 µM each time. For the same compound, the TGI in the assay with SK-MEL-28 melanoma, with SW-620 colon and in the assay with U251 CNS was greater than 100 µM each time.
`BrP(NC1CCCCCC1)(c1ccccc1)(c1ccccc1)c1ccccc1`: the TGI in the assay on KM12 colon was 3.37 µM; in the assay with M14 melanoma it was greater than 100 µM; with NCI-H522 lung, 8.5 µM; in the assay on NCI/ADR-RES ovarian, greater than 100 µM; with RXF 393 renal, 5.57 µM; with SF-295 CNS, 12.2 µM. The values for the TGI with SK-MEL-28 melanoma, in the assay with SW-620 colon and in the assay on U251 CNS were 6.62 µM, 13.6 µM and 13.4 µM, respectively.
Take `CC[C@](O)(C(=O)O)c1cc2n(c(=O)c1CO)Cc1cc3ccccc3nc1-2`: the GI50 with KM12 colon was 0.132 µM and 0.228 µM and 0.54 µM; with M14 melanoma, 0.0108 µM; with NCI-H460 lung it was less than 0.0025 µM; in the assay on NCI/ADR-RES ovarian, 0.00661 µM and 0.012 µM; in the assay on RXF 393 renal it was 0.0278 µM and < 0.0225 µM; with SF-295 CNS it was 0.0029 µM and < 0.0134 µM. The GI50 with SK-MEL-28 melanoma is 0.147 µM and 0.169 µM and 0.0493 µM; in the assay with SW-620 colon it was 0.0948 µM and 0.0713 µM and 0.025 µM; with U251 CNS it was < 0.0025 µM and 0.0107 µM. For the same compound, the TGI was 0.0511 µM and 0.181 µM in the assay with M14 melanoma; 0.0234 µM and 0.125 µM and 0.0345 µM in the assay with NCI-H460 lung; 0.224 µM and 0.121 µM and 0.0889 µM in the assay on NCI/ADR-RES ovarian; 1.1 µM and 0.476 µM and 0.15 µM in the assay with RXF 393 renal; 0.101 µM and 0.0956 µM and 0.107 µM in the assay on SF-295 CNS; 25 µM and 34.1 µM in the assay on SW-620 colon. In addition, in the assay with U251 CNS, the TGI was 0.0386 µM and 0.164 µM and 0.0615 µM.
As for `CC1=C[C@H]2c3c(c(O)c(O)c4oc5cc(O)cc(O)c5c(=O)c34)[C@H](c3cc(O)c(O)c4oc5cc(O)cc(O)c5c(=O)c34)[C@H]2C(C)(C)C1`, the GI50 in the assay on KM12 colon is 1.04 µM and 1.51 µM; in the assay with M14 melanoma, 1.59 µM and 1.62 µM; with NCI-H522 lung, 1.3 µM and 1.34 µM; with NCI/ADR-RES ovarian, 8.48 µM and 3.63 µM; in the assay on RXF 393 renal, 1.76 µM; in the assay on SF-295 CNS, 1.98 µM and 1.63 µM. Moreover, the GI50 in the assay on SK-MEL-28 melanoma was 1.5 µM and 1.76 µM; with SW-620 colon, 1.26 µM and 1.28 µM; in the assay with U251 CNS, 0.789 µM and 1.08 µM. Further, the TGI in the assay on KM12 colon was 3.02 µM and 3.57 µM; in the assay with M14 melanoma it was 5.19 µM and 4.93 µM; with NCI-H522 lung, 3.04 µM and 4.56 µM; with NCI/ADR-RES ovarian, 34.9 µM and 25.4 µM; with RXF 393 renal it was 4.3 µM and 4.04 µM; in the assay on SF-295 CNS, 6.32 µM and 4.96 µM. For the same compound, the TGI with SK-MEL-28 melanoma was 3.44 µM and 4.28 µM; in the assay on SW-620 colon, 4.69 µM and 3.5 µM; in the assay on U251 CNS it was 3.26 µM and 17 µM.
As to `CSc1nc(Cl)c(Br)c(Nc2c[nH]c(=O)[nH]c2=O)n1`, the TGI in the assay with KM12 colon is 67.8 µM; in the assay on M14 melanoma, greater than 100 µM; in the assay on NCI-H522 lung it was 3.88 µM; in the assay with NCI/ADR-RES ovarian, 43.3 µM; with RXF 393 renal, 45.4 µM; in the assay with SF-295 CNS it was 42.6 µM. Also, the results for the TGI in the assay with SK-MEL-28 melanoma, with SW-620 colon and with U251 CNS were 95.8 µM, greater than 100 µM and 48.5 µM, respectively.
Take `CN(C)CCCNC(=O)c1cc2c3ccccc3[nH]c2c2ncccc12`: the GI50 was 19.8 µM in the assay with KM12 colon; 6.37 µM with NCI-H460 lung; 14.5 µM with NCI-H522 lung; 19.2 µM in the assay with NCI/ADR-RES ovarian; 13.2 µM in the assay with RXF 393 renal; 7.49 µM with SF-295 CNS. Besides, the GI50 in the assay with SK-MEL-28 melanoma is 14.3 µM; with SW-620 colon, 6.34 µM; in the assay on U251 CNS, 16.7 µM. Also, the TGI worked out at 67.3 µM with KM12 colon; 38.6 µM in the assay with NCI-H460 lung; 37.7 µM with NCI-H522 lung; 66.1 µM in the assay with NCI/ADR-RES ovarian; 39 µM in the assay on RXF 393 renal; 28 µM in the assay with SF-295 CNS. Further, the values for the TGI in the assay on SK-MEL-28 melanoma, in the assay with SW-620 colon and in the assay on U251 CNS were 31.1 µM, 33.4 µM and 70 µM, respectively.
On to `O=C(CCCn1ccnc1[N+](=O)[O-])NCCn1cnc([N+](=O)[O-])c1`, for which the TGI in the assay on KM12 colon, in the assay with M14 melanoma, in the assay on NCI-H460 lung, in the assay with NCI-H522 lung, in the assay with NCI/ADR-RES ovarian and in the assay on SF-295 CNS was greater than 100 µM throughout. The TGI in the assay on SK-MEL-28 melanoma, with SW-620 colon and with U251 CNS was greater than 100 µM each time.
For the compound `CC(=O)OCCC/C(=C\c1ccc2ccccc2c1)[N+](=O)[O-]`, the GI50 was 1.59 µM in the assay with KM12 colon; 1.58 µM in the assay on M14 melanoma; 2.91 µM in the assay on NCI-H460 lung; 0.353 µM in the assay on NCI-H522 lung; 2.69 µM in the assay on NCI/ADR-RES ovarian; 1.94 µM in the assay on RXF 393 renal. Moreover, the GI50 was 1.96 µM with SF-295 CNS, 1.26 µM with SK-MEL-28 melanoma and 1.44 µM in the assay with SW-620 colon. For the same compound, the TGI in the assay with KM12 colon came to 3.18 µM; in the assay on M14 melanoma, 3.21 µM; in the assay with NCI-H460 lung, 8.62 µM; with NCI-H522 lung, 1.77 µM; with NCI/ADR-RES ovarian it was 8.67 µM; in the assay on RXF 393 renal it was 4.1 µM. Further, the TGI in the assay with SF-295 CNS was 4.55 µM; in the assay with SK-MEL-28 melanoma it was 2.84 µM; in the assay on SW-620 colon it was 3.27 µM.
